According to patent US20230279025A1, “KRAS G12D INHIBITORS” (Mirati Therapeutics, Inc., priority 2020, published 2023):
Like-named read-outs stand apart in the source and are kept apart here.

Tests used:
[1] = test system: KRas G12D-mediated phosphorylation of ERK in AGS cells (ATCC CRL-1739) expressing G12D; assay: Inhibition of KRas G12D-mediated Phosphorylation of ERK in AGS cells; assay type: cell-based; conditions: Homo sapiens
Experimental: Cells were plated in tissue culture treated 96 well plates at a density of 40,000 cells/well and allowed to attach for 12-14 hours. Diluted compounds were then added in a final concentration of 0.5% DMSO. After 3 hours, the medium was removed, 150 μL of 4.0% formaldehyde was added and the plates incubated at room temperature for 20 minutes. The plates were washed with PBS, and permeabilized with 150 μL of ice cold 100% methanol for 10 minutes. Non-specific antibody binding to the plates was blocked using […] Licor blocking buffer (Li-Cor Biotechnology, Lincoln Nebr.) for 1 hour at room temperature.
The amount of phospho-ERK was determined using an antibody specific for the phosphorylated form of ERK and compared to the amount of GAPDH. Primary antibodies used for the detection were added as follows: Phospho-ERK(Cell Signaling cs-9101) diluted 1:500 and GAPDH(Millipore MAB374) diluted 1:5000 in Licor block+0.05% Tween 20. The plates were incubated for 2 hours at room temperature. The plates were washed with PBS+0.05% Tween 20.
Secondary antibodies used to visualize primary antibodies were added as follows: Anti-rabbit-680 diluted 1:1000 and Anti-mouse-800 diluted 1:1000 both in Licor block+0.05% TweeN20, and were incubated for 1 hour at room temperature. The plates were washed with PBS +0.05% Tween 20. A 100 μL aliquot of PBS was added to each well and the plates were read on a Li-Cor Odyssey CLX plate reader.

[2] = target: T1, KRas G12D (Homo sapiens (Human), UniProt P01116, G12D); assay: KRas G12D Surface Plasmon Resonance (SPR) Binding Assay; conditions: Biacore T200, immobilized biotinylated KRAS protein, 1:1 binding model
Target sequence in this assay (P01116-2 other isoform, or with tags, fused parts or gaps G12D): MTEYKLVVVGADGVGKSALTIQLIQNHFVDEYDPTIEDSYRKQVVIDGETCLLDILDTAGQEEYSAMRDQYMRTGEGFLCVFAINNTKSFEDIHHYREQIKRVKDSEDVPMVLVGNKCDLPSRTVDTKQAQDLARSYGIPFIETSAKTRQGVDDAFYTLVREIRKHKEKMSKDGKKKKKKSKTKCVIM

[3] = target: T1, KRas G12D; assay: KRas G12D Binding Assay (TR-FRET displacement of Cy5 labelled tracer); conditions: GDP-loaded KRAS G12D (amino acids 1:169), 60 minute incubation at 22° C.
Experimental: After a 60 minute incubation at 22° C., the reaction was measured using a PerkinElmer EnVision multimode plate reader via TR-FRET dual wavelength detection, and the percent of control (POC) calculated using a ratiometric emission factor. […] The POC values were fit to a 4-parameter logistic curve and the IC50 value was determined as the concentration where the curve crosses 50 POC.
ND stands for “not determined.”
Target sequence in this assay (P01116 other isoform, or with tags, fused parts or gaps G12D): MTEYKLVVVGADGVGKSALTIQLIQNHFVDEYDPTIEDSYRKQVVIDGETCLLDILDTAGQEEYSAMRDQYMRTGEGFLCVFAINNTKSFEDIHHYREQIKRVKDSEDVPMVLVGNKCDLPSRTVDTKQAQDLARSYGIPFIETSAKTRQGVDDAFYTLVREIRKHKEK

[4] = phospho-ERK(Thr202/Tyr204) normalized to GAPDH, AGS cells, 3 hours, read-out: IC50

SMILES: N#CC[C@@H]1C[C@@H]2CN(c3nc(OC[C@@]45CCCN4C[C@H](F)C5)nc4c(F)c(-c5cc(O)cc6ccccc56)ncc34)C[C@H]1N2 (racemic) [Example 339, 2-((1R,5S,6S)-3-(8-fluoro-2-((2-fluorotetrahydro-1H-pyrrolizin-7a(5H)-yl)methoxy)-7-(3-hydroxynaphthalen-1-yl)pyrido[4,3-d]pyrimidin-4-yl)-3,8-diazabicyclo[3.2.1]octan-6-yl)acetonitrile (racemic, trans)]
- IC50 [1, 4]: 8660 nM
- Kd [2]: 21.6 nM
- IC50 [3]: 21 nM

SMILES: CCc1cccc2cccc(-c3ncc4c(N5CC6CCC(C5)N6)nc(OC[C@]56CCCN5[C@@H](COC(=O)N5CCOCC5)CC6)nc4c3F)c12 (single isomer, unassigned) [Example 431]
- IC50 [1, 4]: 74.3 nM
- IC50 [3]: 1.4 nM

SMILES: CCc1cccc2cccc(-c3ncc4c(N5CC6CCC(C5)N6)nc(OC[C@]56CCCN5[C@@H](COC(=O)NC)CC6)nc4c3F)c12 (single isomer, unassigned) [Example 432]
- IC50 [1, 4]: 106 nM
- IC50 [3]: 1.9 nM

SMILES: Oc1cc(-c2ncc3c(N4C[C@H]5CC[C@@H](C4)N5)nc(OCCCN4C[C@@H]5C[C@H]4CO5)nc3c2F)c2ccccc2c1 [Example 24, 4-(2-(3-((1S,4S)-2-oxa-5-azabicyclo[2.2.1]heptan-5-yl)propoxy)-4-((1R,5S)-3,8-diazabicyclo[3.2.1]octan-3-yl)-8-fluoropyrido[4,3-d]pyrimidin-7-yl)naphthalen-2-ol]
- IC50 [1, 4]: 2890 nM
- Kd [2]: 5 nM
- IC50 [3]: 7.9 nM

SMILES: CN1C[C@H](Oc2cccc(S(=O)(=O)F)c2)C[C@H]1COc1nc(N2C[C@H]3CC[C@@H](C2)N3)c2cnc(-c3cccc4cccc(Cl)c34)c(F)c2n1 [Example 208, 3-(((3R,5S)-5-(((4-((1R,5S)-3,8-diazabicyclo[3.2.1]octan-3-yl)-7-(8-chloronaphthalen-1-yl)-8-fluoropyrido[4,3-d]pyrimidin-2-yl)oxy)methyl)-1-methylpyrrolidin-3-yl)oxy)benzenesulfonyl fluoride tris 2,2,2-trifluoroacetate]
- IC50 ([1]; AGS, 3 h): > 16700 nM
- IC50 [3]: 1840 nM

SMILES: CN1C[C@H](Oc2ccc(S(=O)(=O)F)cc2)C[C@H]1COc1nc(N2C[C@H]3CC[C@@H](C2)N3)c2cnc(-c3cccc4cccc(Cl)c34)c(F)c2n1 [Example 209, 4-(((3R,5S)-5-(((4-((1R,5S)-3,8-diazabicyclo[3.2.1]octan-3-yl)-7-(8-chloronaphthalen-1-yl)-8-fluoropyrido[4,3-d]pyrimidin-2-yl)oxy)methyl)-1-methylpyrrolidin-3-yl)oxy)benzenesulfonyl fluoride tris(2,2,2-trifluoroacetate)]
- IC50 ([1]; AGS, 3 h): > 16700 nM
- IC50 [3]: 2750 nM

SMILES: CN1CC[C@H](Oc2cccc(S(=O)(=O)F)c2)[C@H]1COc1nc(N2C[C@H]3CC[C@@H](C2)N3)c2cnc(-c3cccc4cccc(Cl)c34)c(F)c2n1 [Example 210, 3-(((2R,3S)-2-(((4-((1R,5S)-3,8-diazabicyclo[3.2.1]octan-3-yl)-7-(8-chloronaphthalen-1-yl)-8-fluoropyrido[4,3-d]pyrimidin-2-yl)oxy)methyl)-1-methylpyrrolidin-3-yl)oxy)benzenesulfonyl fluoride tris(2,2,2-trifluoroacetate)]
- IC50 ([1]; AGS, 3 h): > 16700 nM
- IC50 [3]: 5460 nM

SMILES: CCc1cccc2cc(O)cc(-c3ncc4c(N5C[C@H]6CC[C@@H](C5)N6)nc(OC[C@]56CCCN5C[C@@H](F)C6)nc4c3F)c12 [Example 468, 4-(4-((1R,5S)-3,8-diazabicyclo[3.2.1]octan-3-yl)-8-fluoro-2-(((2S,7aR)-2-fluorohexahydro-1H-pyrrolizin-7a-yl)methoxy)pyrido[4,3-d]pyrimidin-7-yl)-5-ethylnaphthalen-2-ol]
- IC50 [1, 4]: 28.8 nM
- IC50 [3]: < 0.002 nM

SMILES: C#Cc1c(F)ccc2cc(O)cc(-c3ncc4c(N5C[C@H]6CC[C@@H](C5)N6)nc(OC[C@@]56CCCCN5C[C@H](F)C6)nc4c3F)c12 [Example 469, 4-(4-((1R,5S)-3,8-diazabicyclo[3.2.1]octan-3-yl)-8-fluoro-2-(((2R,8aS)-2-fluorooctahydroindolizin-8a-yl)methoxy)pyrido[4,3-d]pyrimidin-7-yl)-5-ethynyl-6-fluoronaphthalen-2-ol]
- IC50 [1, 4]: 31.6 nM
- IC50 [3]: < 0.002 nM
